Active and inactive are the calls of the source. The rule behind the calls is not given here.
What was measured:
[1] = system: Plasmodium falciparum; assay: Antiplasmodial activity against chloroquine-resistant Plasmodium falciparum Dd2 ring stage incubated for 72 hrs by DAPI-staining based imaging analysis; type: functional, organism-based; settings: Dd2, 72 h
[2] = Selectivity index, ratio of IC50 for cytotoxicity against human HEK293 cells to IC50 for antiplasmodial activity against chloroquine-sensitive Plasmodium falciparum 3D7 ring stage; type: toxicity, cell-based; settings: read-out: Ratio IC50
[3] = system: HEK293; assay: Cytotoxicity against human HEK293 cells assessed as reduction in cell viability after 72 hrs by resazurin dye based assay; settings: HEK293, 72 h
[4] = Selectivity index, ratio of IC50 for cytotoxicity against human HEK293 cells to IC50 for antiplasmodial activity against chloroquine-resistant Plasmodium falciparum Dd2 ring stage; type: toxicity, cell-based; settings: read-out: Ratio IC50
[5] = system: Plasmodium falciparum; assay: Antiplasmodial activity against chloroquine-sensitive Plasmodium falciparum 3D7 ring stage incubated for 72 hrs by DAPI-staining based imaging analysis; type: functional, organism-based; settings: 3D7, 72 h
[6] = system: HEK293; assay: Cytotoxicity against human HEK293 cells assessed as reduction in cell viability at 40 uM after 72 hrs by resazurin dye based assay; settings: hek293, 72 h
[7] = system: HEK293; assay: Cytotoxicity against human HEK293 cells assessed as reduction in cell viability at 4 uM after 72 hrs by resazurin dye based assay relative to control; settings: hek293, 72 h
[8] = system: Plasmodium falciparum; assay: Antiplasmodial activity against chloroquine-sensitive Plasmodium falciparum 3D7 ring stage at 40 uM incubated for 72 hrs by DAPI-staining based imaging analysis; type: functional, organism-based
[9] = system: Plasmodium falciparum; assay: Antiplasmodial activity against chloroquine-resistant Plasmodium falciparum Dd2 ring stage at 40 uM incubated for 72 hrs by DAPI-staining based imaging analysis; type: functional, organism-based
[10] = system: HEK293; assay: Cytotoxicity against human HEK293 cells assessed as reduction in cell viability at 0.1 uM after 72 hrs by resazurin dye based assay; settings: hek293, 72 h

`COc1ccc(C[C@H](N)C(=O)N[C@H]2[C@@H](O)[C@H](n3cnc4c(N(C)C)ncnc43)O[C@@H]2CO)cc1` [PUROMYCIN] showed an IC50 [1] of 0.068 µM, a selectivity ratio [2] of 353 and an IC50 [3] of 0.81 µM. For the same compound, the selectivity ratio [4] was 585.

With `COc1cc(CCN(C)CCCN(C)C)c(Br)cc1Br` the selectivity ratio [2] was 10, the IC50 [5] was 1.7 µM and the IC50 [3] was 17 µM.

For `CNCCc1cc(OC)c(Br)cc1Br.O=C(O)C(F)(F)F`, the selectivity ratio [2] was 4, the IC50 [5] was 11 µM and the Activity [6] was “Non-Toxic”.

With `COc1cc(CCN(C)CCCN(C)C(=O)[C@H](CCN(C)CCc2cc(OC)c(Br)cc2Br)N(C)C)c(Br)cc1Br` the IC50 [1] was 0.75 µM, the selectivity ratio [2] was 66 and the IC50 [5] was 0.61 µM. For the same compound, the selectivity ratio [4] was 53 and the Activity [6] was “Non-Toxic”.

`CCN(CC)CCCC(C)Nc1ccnc2cc(Cl)ccc12` (stereo not drawn) [CHLOROQUINE] showed an Activity [7] of 67%.

For `Cn1c(Br)c(C=O)c2cc(Br)ccc21`, the Activity [8] was “inactive”, the Activity [6] was “Non-Toxic” and the Activity [9] was “inactive”.

With `C[C@H]1[C@@H](O)O[C@@H]2O[C@@]3(C)CC[C@H]4[C@H](C)CC[C@@H]1[C@@]24OO3` [ARTENIMOL] the Activity [10] was “Non-Toxic”, the selectivity ratio [2] was 62 and the IC50 [5] was 0.002 µM. For the same compound, the selectivity ratio [4] was 57.

Compound `CN[C@@H](CCN(C)CCc1cc(OC)c(Br)cc1Br)C(=O)N(C)CCCN(C)CCc1cc(OC)c(Br)cc1Br` has an IC50 [1] of 0.85 µM, a selectivity ratio [2] of 20 and an IC50 [5] of 0.57 µM. It also gave an IC50 [3] of 11 µM and a selectivity ratio [4] of 13.

`CN[C@@H](CCN(C)CCc1cc(OC)c(Br)cc1Br)C(=O)NCCCN(C)CCc1cc(OC)c(Br)cc1Br` gave an IC50 [1] of 1.9 µM, a selectivity ratio [2] of 25 and an IC50 [5] of 1.6 µM. The selectivity ratio [4] was 21 and the Activity [6] was “Non-Toxic”.
